With `O=C(O)c1ccc(N2C3CCC2CN(CC(=O)N2CCc4nc(-c5ccc(F)cc5)sc4C2)C3)nc1`, the melting point (as a rule, the temperature of the solid-liquid transition) lay in the range of 240 to 244 °C.
Consider `O=C(CN1CC2CCC(C1)N2c1ccc(C(F)(F)F)cn1)N1CCc2nn(-c3ccc(C(F)(F)F)cn3)cc2C1`, for which the melting point lay in the range of 192 to 193 °C.
The compound `O=C(CN1CC2CCC(C1)N2c1ccc(C(F)(F)F)cn1)N1CCc2nc(-c3ccncc3)sc2C1` displayed a melting point of 183 to 185 °C.
Compound `O=C(CN1CC2CCC(C1)N2c1ccc(C(F)(F)F)cn1)N1CCc2nn(-c3ccccn3)cc2C1` gave a melting point of 170 to 171 °C.
`O=C(CN1CC2CCC(C1)N2c1ccc(-c2ncon2)cn1)N1CCc2nn(-c3ccccc3)cc2C1` showed a melting point of 201 to 202 °C.
Consider `O=C(CN1CC2CCC(C1)N2c1ccc(C(F)(F)F)cn1)N1CCc2nn(-c3ccccc3)cc2C1`, for which the melting point is 212 to 213 °C.
For `COC(=O)c1ccc(N2C3CCC2CN(CC(=O)N2Cc4nc(-c5ccccc5)sc4C2)C3)nc1`, the melting point lay within 252 to 253 °C.
`Cc1nc2c(s1)CN(C(=O)CN1CC3CCC(C1)N3c1ncc(F)cn1)CC2` yielded a melting point of 137 to 138 °C.
On to `COC(=O)c1ccc(N2C3CCC2CN(CC(=O)N2CCc4nc(-c5ccc(OC)cc5)sc4C2)C3)nc1`, for which the melting point lay within 159 to 160 °C.
`COC(=O)c1ccc(N2C3CCC2CN(CC(=O)N2CCc4nn(-c5ccc(C(F)(F)F)cn5)cc4C2)C3)nc1` came in with a melting point of 217 to 218 °C.
`COc1ccc(-n2cc3c(n2)CCN(C(=O)CN2CC4CCC(C2)N4c2ncc(F)cn2)C3)cc1` came in with a melting point of 186 to 188 °C.
The compound `O=C(O)c1ccc(N2C3CCC2CN(CC(=O)N2CCc4nc(-c5ccsc5)sc4C2)C3)nc1` came in with a melting point of 262 to 264 °C.
On to `COc1ccc(-n2ncc3c2CCN(C(=O)CN2CC4CCC(C2)N4c2ncc(F)cn2)C3)cc1`, for which the melting point fell in the range of 194 to 195 °C.
As for `O=C(CN1CC2CCC(C1)N2c1ncc(F)cn1)N1CCc2n[nH]cc2C1`, the melting point fell in the range of 122 to 123 °C.
Compound `O=C(CN1CC2CCC(C1)N2c1ncc(F)cn1)N1CCc2c(cnn2-c2ccc(F)cc2)C1` yielded a melting point of 151 to 152 °C.
The result for `O=C(CN1CC2CCC(C1)N2c1ncc(F)cn1)N1CCc2cc(-c3ccccc3)oc2C1` reads 165 to 167 °C.
`COC(=O)c1ccc(N2CC3CCC(C2)N3CC(=O)N2CCc3nc(-c4ccccc4)sc3C2)nc1` returned a melting point of 162 to 163 °C.
The result for `O=C(CN1CC2CCC(C1)N2c1ncc(F)cn1)N1CCc2oc(-c3ccccc3)nc2C1` reads 88 to 89 °C; that for `O=C(O)c1ccc(N2CC3CCC(C2)N3CC(=O)N2CCc3nn(-c4ccccc4)cc3C2)nc1`, 207 to 208 °C.
In the case of `O=C(CN1CC2CCC(C1)N2c1ncc(F)cn1)N1CCc2nc(-c3ccncc3)sc2C1`, the melting point is 193 to 194 °C.
The result for `O=C(CN1CC2CCC(C1)N2c1ccc(-c2noc(=O)[nH]2)cn1)N1CCc2nn(-c3ccccc3)cc2C1` reads 176 to 179 °C.
`O=C(CN1CC2CCC(C1)N2c1ncc(F)cn1)N1CCc2nc(-c3ccccc3)[nH]c2C1` yielded a melting point of 130 to 132 °C.
Compound `O=C(CN1CC2CCC(C1)N2c1ccc(-c2noc(=O)[nH]2)cn1)N1CCc2nc(-c3ccccc3)sc2C1` came in with a melting point of 215 to 218 °C.
Take `O=C(CN1CC2CCC(C1)N2c1ncc(F)cn1)N1CCc2nc(-c3cccnc3)sc2C1`: the melting point lay within 200 to 202 °C.
`O=C(CN1CC2CCC(C1)N2c1ccc(-c2nnn[nH]2)cn1)N1CCc2nc(-c3ccccc3)sc2C1` yielded a melting point of 201 to 202 °C.
The result for `N#Cc1ccc(N2C3CCC2CN(CC(=O)N2CCc4nc(-c5ccc(F)cc5)sc4C2)C3)nc1` reads 212 to 213 °C; that for `N#Cc1ccc(N2C3CCC2CN(CC(=O)N2CCc4nn(-c5ccccc5)cc4C2)C3)nc1`, 198 to 200 °C.
For the compound `O=C(CN1CC2CCC(C1)N2c1ncc(F)cn1)N1CCc2nc(-c3ccccc3)oc2C1`, the melting point was 193 °C.
As to `Cn1cc2c(n1)CCN(C(=O)CN1CC3CCC(C1)N3c1ccc(C(F)(F)F)cn1)C2`, the melting point lay within 70 to 71 °C.
